Laboratory results taken from the supplement of paper PMC10307832.

Legend:
Experiment in all cases: relative viability (nuclei count vs DMSO), 5 days (fraction); higher = more cells survive
BI-2536 + Crizotinib = compound: CC[C@@H]1C(=O)N(C)c2cnc(Nc3ccc(C(=O)NC4CCN(C)CC4)cc3OC)nc2N1C1CCCC1 [BI-2536] + C[C@@H](Oc1cc(-c2cnn(C3CCNCC3)c2)cnc1N)c1c(Cl)ccc(F)c1Cl [Crizotinib] (partner 1 µM)
Summary of the method: (§1)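 Five library-drug doses in √10 steps were combined with a fixed anchor-drug dose, or a single drug was given alone, by pin tool to lung cancer cell lines in 1536-well plates the day after seeding. Nuclei were stained and counted after 5 days. Relative viability is the nuclei count in treated wells over that in vehicle wells, taken as the median of duplicate plates.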

NPK76-II-72-1 + Olaparib = compound: CC1CC(=O)N(C2=CN=C(N=C2N1C3CCCC3)NC4=C(C=C(C=C4)C(=O)NC5CCN(CC5)C)OC)C [NPK76-II-72-1] + O=C(c1cc(Cc2n[nH]c(=O)c3ccccc23)ccc1F)N1CCN(C(=O)C2CC2)CC1 [Olaparib] (partner 8 µM)
Summary of the method: as §1

BI-2536 + Trametinib = compound: CC[C@@H]1C(=O)N(C)c2cnc(Nc3ccc(C(=O)NC4CCN(C)CC4)cc3OC)nc2N1C1CCCC1 [BI-2536] + CC(=O)Nc1cccc(-n2c(=O)n(C3CC3)c(=O)c3c(Nc4ccc(I)cc4F)n(C)c(=O)c(C)c32)c1 [Trametinib] (partner 0.02 µM)
Summary of the method: as §1

BI-2536 + OSI-027 = compound: CC[C@@H]1C(=O)N(C)c2cnc(Nc3ccc(C(=O)NC4CCN(C)CC4)cc3OC)nc2N1C1CCCC1 [BI-2536] + COc1cccc2cc(-c3nc([C@H]4CC[C@H](C(=O)O)CC4)n4ncnc(N)c34)[nH]c12 [OSI-027] (partner 0.5 µM)
Summary of the method: as §1

Cell Line	relative viability (BI-2536 + Crizotinib; first compound 0.01 µM)	relative viability (BI-2536 + Crizotinib; first compound 0.03162 µM)	relative viability (BI-2536 + Crizotinib; first compound 0.1 µM)	relative viability (BI-2536 + Crizotinib; first compound 0.3162 µM)	relative viability (BI-2536 + Crizotinib; first compound 1 µM)	relative viability (NPK76-II-72-1 + Olaparib; first compound 0.01 µM)	relative viability (NPK76-II-72-1 + Olaparib; first compound 0.03162 µM)	relative viability (NPK76-II-72-1 + Olaparib; first compound 0.1 µM)	relative viability (NPK76-II-72-1 + Olaparib; first compound 0.3162 µM)	relative viability (NPK76-II-72-1 + Olaparib; first compound 1 µM)	relative viability (BI-2536 + Trametinib; first compound 0.01 µM)	relative viability (BI-2536 + Trametinib; first compound 0.03162 µM)	relative viability (BI-2536 + Trametinib; first compound 0.1 µM)	relative viability (BI-2536 + Trametinib; first compound 0.3162 µM)	relative viability (BI-2536 + Trametinib; first compound 1 µM)	relative viability (BI-2536 + OSI-027; first compound 0.01 µM)	relative viability (BI-2536 + OSI-027; first compound 0.03162 µM)	relative viability (BI-2536 + OSI-027; first compound 0.1 µM)	relative viability (BI-2536 + OSI-027; first compound 0.3162 µM)	relative viability (BI-2536 + OSI-027; first compound 1 µM)
H3255	0.909	0.763	0.515	0.196	0.24	0.531	0.552	0.561	0.483	0.592	0.571	0.582	0.294	0.281	0.424	0.51	0.586	0.188	0.259	0.323
NCI-H1993	0.945	0.906	0.621	0.57	0.693	0.96	1.05	1.24	1.07	1.29	0.448	0.404	0.56	0.379	0.398	0.521	0.481	0.519	0.484	0.453
NCI-H1734	0.644	0.548	0.35	0.204	0.158	0.582	0.72	0.745	0.542	0.667	0.723	0.638	0.593	0.173	0.165	0.57	0.494	0.206	0.179	0.19
HOP-62	0.986	0.949	0.78	0.134	0.12	0.389	0.351	0.466	–	0.465	0.315	0.353	0.401	0.167	0.152	0.803	0.724	0.526	0.268	0.181
LOU-NH91	0.697	0.671	0.719	0.325	0.307	0.906	0.926	0.893	0.785	0.991	0.798	0.736	0.682	0.332	0.33	0.716	0.697	0.695	0.416	0.244
ChaGo-K-1	1.05	0.693	0.704	0.299	0.303	0.417	0.401	0.392	0.418	0.448	0.9	0.875	0.733	0.181	0.202	0.661	0.577	0.253	0.136	0.155
NCI-H2228	0.547	0.466	0.236	0.207	0.172	0.561	0.666	0.841	0.597	0.817	0.312	0.51	0.184	0.107	0.089	0.576	0.437	0.141	0.124	0.26
PC-14	0.852	0.793	0.792	0.116	0.0584	0.295	0.377	0.384	0.267	0.32	0.847	0.71	0.0723	0.0556	0.0339	0.906	0.546	0.111	0.032	0.0346
NCI-H1437	0.812	0.593	0.418	0.117	0.116	0.626	0.666	0.613	0.624	0.624	0.636	0.483	0.428	0.149	0.177	0.857	0.925	0.398	0.172	0.149
NCI-H460	0.966	0.842	0.0283	0.0109	0.0112	0.441	0.457	0.514	0.426	0.455	0.205	0.154	0.0447	0.0185	0.0133	0.676	0.327	0.247	0.0156	0.0121
NCI-H1666	0.924	0.899	0.503	0.306	0.321	0.74	0.754	0.735	0.84	0.758	0.919	0.914	0.865	0.49	0.512	0.881	0.842	0.686	0.378	0.311
NCI-H1651	0.85	0.889	0.81	0.358	0.101	0.186	0.168	0.185	0.168	0.171	0.786	0.868	0.789	0.518	0.123	0.686	0.758	0.272	0.0807	0.0995
NCI-H1755	0.893	0.751	0.594	0.315	0.25	0.858	0.915	0.888	0.827	0.893	0.78	0.784	0.689	0.367	0.363	0.707	0.692	0.324	0.245	0.275
NCI-H661	0.97	0.928	0.854	0.381	0.262	0.697	0.705	0.778	0.666	0.83	0.587	0.427	0.291	0.238	0.264	0.697	0.379	0.35	0.208	0.209
HARA	1.03	1.07	0.636	0.139	0.196	0.888	0.756	0.76	–	0.872	0.765	0.971	0.545	0.0894	0.156	0.512	0.738	0.152	0.0483	0.0491
NCI-H596	0.948	1.05	0.938	0.493	0.443	0.771	0.748	0.68	0.704	0.67	0.758	0.798	0.721	0.414	0.256	0.688	0.825	0.51	0.191	0.304
